# Earlier results, collected in publication PMC6311893, “Computational prediction of plasma protein binding of cyclic peptides from small molecule experimental data using sparse modeling techniques” (BMC Bioinformatics, 2018).
# System: plasma protein
# Conditions: cited from earlier work
row,Molecule,PPB (fb)
1,C=C1/C(=C\C=C2/CCC[C@]3(C)[C@@H]([C@H](C)CCCC(C)(C)O)CC[C@@H]23)C[C@@H](O)C[C@@H]1O [calcitriol],0.95
2,Cc1ccc(C(N)C(=O)NC2C(=O)N3C2SC(C)(C)C3C(=O)O)cc1 (stereo not drawn) [penicillin27],0.6

# Same assay, conditions: fraction bound to plasma protein; small molecule dataset, sheet 1-SM (Set Dte = test, Dtr = training); ref Ingle et al.; cited from earlier work
row,Molecule,PPB (fb)
1,COC(=O)N[C@H](C(=O)N[C@@H](Cc1ccccc1)[C@@H](O)CN(Cc1ccc(-c2ccccn2)cc1)NC(=O)[C@@H](NC(=O)OC)C(C)(C)C)C(C)(C)C [Atazanavir],0.86
2,COc1cccc(-n2cc(C(=O)O)c(=O)c3cc(F)c(N4CCNCC4)cc32)c1 [5b(m-OCH3)],0.35
3,O=C(O)[C@@H]1C[C@@H](C2CCCCC2)CN1C(=O)CP(=O)(O)CCCCc1ccccc1 [Fosinoprilat],0.99
4,CNC(=C[N+](=O)[O-])NCCSCc1ccc(CN(C)C)o1 [Ranitidine],0.1
5,COC1/C=C/OC2(C)Oc3c(C)c(O)c4c(O)c(c(/C=N/N5CCN(C6CCCC6)CC5)c(O)c4c3C2=O)NC(=O)/C(C)=C\C=C\C(C)C(O)C(C)C(O)C(C)C(O)C1C (stereo not drawn) [25-desacetylrifapentine],0.98
6,CCC1(c2ccc(N)cc2)CCC(=O)NC1=O (stereo not drawn) [aminoglutethimide],0.24
7,CC1(C)SC2C(NC(=O)C(Br)c3ccccc3)C(=O)N2C1C(=O)O (stereo not drawn) [penicillin21],0.82
8,CNCCCC12CCC(c3ccccc31)c1ccccc12 [Maprotiline],0.89
9,OCCN(CCO)c1nc(N2CCCCC2)c2nc(N(CCO)CCO)nc(N3CCCCC3)c2n1 [dipyridamole],0.99
10,CC(=O)O[C@@]12CO[C@@H]1C[C@H](O)[C@@]1(C)C(=O)[C@H](O)C3=C(C)[C@@H](OC(=O)[C@H](O)[C@@H](NC(=O)OC(C)(C)C)c4ccccc4)C[C@@](O)([C@@H](OC(=O)c4ccccc4)[C@H]21)C3(C)C [Docetaxel],0.96
11,CN[C@H]1CC[C@@H](c2ccc(Cl)c(Cl)c2)c2ccccc21 [sertraline],0.98
12,NC1CCN(c2c(F)cc3c(=O)c(C(=O)O)cn(C4CC4)c3c2Cl)C1 (stereo not drawn) [Clinafloxacin],0.04
13,O=C(O)c1cc(=O)c2c(OCC(O)COc3cccc4oc(C(=O)O)cc(=O)c34)cccc2o1 [cromolyn],0.68
14,CCN(CC)C(=O)N1CCN(C)CC1 [diethylcarbamazine],0

# Same assay, conditions: fraction bound to plasma protein; small molecule dataset, sheet 1-SM, Set Dtr; ref Ingle et al.; cited from earlier work
row,Molecule,PPB (fb)
1,CN(Cc1cnc2nc(N)nc(N)c2n1)c1ccc(C(=O)N[C@@H](CCC(=O)O)C(=O)O)cc1 [Methotrexate],0.58
2,COc1cc(C(=O)NS(=O)(=O)c2ccccc2C)ccc1Cc1cn(C)c2ccc(NC(=O)OC3CCCC3)cc12 [zafirlukast],0.99
3,CCN(CC)CCNC(=O)c1ccc(N)cc1 [Procainamide],0.16
4,Clc1cccc(Cl)c1N=C1NCCN1 [Clonidine],0.34
5,CC(C)NCC(O)COc1cccc2[nH]ccc12 (stereo not drawn) [Pindolol],0.48
6,C=CCc1ccccc1OCC(O)CNC(C)C (stereo not drawn) [Alprenolol],0.81
7,CC(=O)Nc1c(I)c(C(=O)O)c(I)c(N(C)C(C)=O)c1I [Metrizoate],0
8,O=C(O)[C@H]1/C(=C/CO)O[C@@H]2CC(=O)N21 [Clavulanic Acid],0.09
9,O=C1CC[C@@]2(O)[C@H]3Cc4ccc(O)c5c4[C@@]2(CCN3CC2CC2)[C@H]1O5 [Naltrexone],0.2
10,COc1c(N2C[C@@H]3CCCN[C@@H]3C2)c(F)cc2c(=O)c(C(=O)O)cn(C3CC3)c12 [Moxifloxacin],0.45
11,CCc1nc(N)nc(N)c1-c1ccc(Cl)cc1 [Pyrimethamine],0.89
12,COCC(=O)Nc1c(I)c(C(=O)NCC(O)CO)c(I)c(C(=O)N(C)CC(O)CO)c1I (stereo not drawn) [Iopromide],0.01
13,COc1cccc2c1C(=O)c1c(O)c3c(c(O)c1C2=O)C[C@@](O)(C(=O)CO)C[C@@H]3O[C@H]1C[C@H](N)[C@H](O)[C@H](C)O1 [Doxorubicin],0.73
14,CN(C)CCCN1c2ccccc2Sc2ccccc21 [Promazine],0.89
15,COc1ccc(C(=O)Nc2ccccc2CCC2CCCCN2C)cc1 (stereo not drawn) [Encainide],0.72
16,Cc1onc(-c2c(F)cccc2Cl)c1C(=O)N[C@@H]1C(=O)N2[C@@H]1SC(C)(C)[C@@H]2C(=O)O [Flucloxacillin],0.95
17,COc1cc2c(cc1OC)[C@@H](Cc1cc(OC)c(OC)c(OC)c1)[N+](C)(CCCOC(=O)CC/C=C/CCC(=O)OCCC[N+]1(C)CCc3cc(OC)c(OC)cc3[C@H]1Cc1cc(OC)c(OC)c(OC)c1)CC2 (stereo partly drawn) [Mivacurium],0.3
18,N=C(N)NC(=O)Cc1c(Cl)cccc1Cl [Guanfacine],0.72

# Same assay, conditions: fraction bound to plasma protein; small molecule dataset, sheet 1-SM; ref Ingle et al.; cited from earlier work
row,Molecule,PPB (fb)
1,COC(=O)[C@@H]1CC2=CC(=O)CC[C@]2(C)[C@@]23O[C@@H]2C[C@@]2(C)[C@@H](CC[C@@]24CCC(=O)O4)[C@H]13 [eplerenone],0.46
2,CCCCN1C[C@H](O)[C@@H](O)[C@H](O)[C@H]1CO [Miglustat],0.01
3,CC(Oc1cc(Cl)cc(Cl)c1)C(=O)NC1C(=O)N2C1SC(C)(C)C2C(=O)O (stereo not drawn) [penicillin59],0.97
4,[H]/N=C(/N)N/C(=N/[H])NCCc1ccccc1 [phenformin],0.16
5,CC(Oc1ccccc1)C(=O)NC1C(=O)N2C1SC(C)(C)C2C(=O)O (stereo not drawn) [penicillin48],0.82
6,CN(CC1(C)CCCO1)S(=O)(=O)c1ccc(Cl)c(S(N)(=O)=O)c1 (stereo not drawn) [mefruside],0.65
7,C/C=C/C[C@@H](C)C(=O)[C@H]1C(=O)N[C@@H](C(C)C)C(=O)N(C)CC(=O)N(C)[C@@H](CC(C)C)C(=O)N[C@@H](C(C)C)C(=O)N(C)[C@@H](CC(C)C)C(=O)N[C@@H](C)C(=O)N[C@H](C)C(=O)N(C)[C@@H](CC(C)C)C(=O)N(C)[C@@H](CC(C)C)C(=O)N(C)[C@@H](C(C)C)C(=O)N1C [Valspodar],0.98
8,CCN(CCCCOC(=O)c1ccc(OC)c(OC)c1)C(C)Cc1ccc(OC)cc1 (stereo not drawn) [mebeverine],0.75
9,CCCCC(OCC)C(=O)NC1C(=O)N2C1SC(C)(C)C2C(=O)O (stereo not drawn) [penicillin10],0.74
10,C=C1C[C@@H]2[C@H](CC[C@]3(C)C(=O)CC[C@@H]23)[C@@]2(C)C=CC(=O)C=C12 [exemestane],0.9
11,CCOCC(=O)NC1C(=O)N2C1SC(C)(C)C2C(=O)O (stereo not drawn) [penicillin6],0.28
12,Nc1cc(N2CCCCC2)nc(N)[n+]1[O-] [minoxidil],0.03
13,OCCN1CCN(CCCN2c3ccccc3Sc3ccc(C(F)(F)F)cc32)CC1 [fluphenazine],0.95
14,Cc1noc(NS(=O)(=O)c2ccc(N)cc2)c1C [Sulfisoxazole],0.92
15,CCCCCCCCCCC[C@@H](C[C@@H]1OC(=O)[C@H]1CCCCCC)OC(=O)[C@H](CC(C)C)NC=O [orlistat],0.99
16,CCCCC1C(=O)N(c2ccccc2)N(c2ccc(O)cc2)C1=O (stereo not drawn) [oxyphenbutazone],0.99
17,CC1(C)SC2C(NC(=O)C(N)c3cccc(N)c3)C(=O)N2C1C(=O)O (stereo not drawn) [penicillin31],0.12
18,O=C(O)c1cc(/N=N/c2ccc(O)c(C(=O)O)c2)ccc1O [olsalazine],0.99
19,Oc1ccc(C2CNCCc3c2cc(O)c(O)c3Cl)cc1 (stereo not drawn) [fenoldopam],0.88
20,COc1cc(/C=C/C(=O)O)ccc1O [ferulic acid],0.73
21,Cc1ccc(O)c([C@H](CCN(C(C)C)C(C)C)c2ccccc2)c1 [Tolterodine],0.96
22,CNC[C@H](O)c1ccc(O)c(O)c1 [epinephrine],0.5
23,C[C@@H](c1ncncc1F)[C@](O)(Cn1cncn1)c1ccc(F)cc1F [Voriconazole],0.58
24,CC(Oc1ccccc1Cl)C(=O)NC1C(=O)N2C1SC(C)(C)C2C(=O)O (stereo not drawn) [penicillin55],0.96
25,CCCc1c2oc(C(=O)O)cc(=O)c2cc2c(=O)cc(C(=O)O)n(CC)c12 [nedocromil],0.8
26,CC(C(=O)O)c1ccc(C(=O)c2cccs2)cc1 (stereo not drawn) [Suprofen],0.99

# Same assay, conditions: human, plasma; cited from earlier work
row,Molecule,PPB (fb)
1,CCNC(=O)[C@@H]1CCCN1C(=O)[C@H](CCCNC(=N)N)NC(=O)[C@H](CC(C)C)NC(=O)[C@@H](CC(C)C)NC(=O)[C@H](Cc1ccc(O)cc1)NC(=O)[C@H](CO)NC(=O)[C@H](Cc1c[nH]c2ccccc12)NC(=O)[C@H](Cc1c[nH]cn1)NC(=O)[C@@H]1CCC(=O)N1 [Leuprolide],0.46

# Same assay, conditions: plasma; cited from earlier work
row,Molecule,PPB (fb)
1,CCOC(=O)C1(c2ccccc2)CCN(C)CC1 [Meperidine],0.58
2,COc1ccc2cc1Oc1cc3c(cc1OC)CC[N+](C)(C)[C@H]3Cc1ccc(cc1)Oc1c(OC)c(OC)cc3c1[C@@H](C2)[N+](C)(C)CC3 [Metocurine],0.35
3,CC(=O)O[C@H]1C[C@H](O[C@H]2[C@@H](O)C[C@H](O[C@H]3[C@@H](O)C[C@H](O[C@H]4CC[C@@]5(C)[C@H](CC[C@@H]6[C@@H]5C[C@@H](O)[C@]5(C)[C@@H](C7=CC(=O)OC7)CC[C@]65O)C4)O[C@@H]3C)O[C@@H]2C)O[C@H](C)[C@H]1O [alpha-acetyldigoxin],0.25
4,Tetracycline,0.36
5,CCC(OC(C)=O)C(CC(C)N(C)C)(c1ccccc1)c1ccccc1 (stereo not drawn) [laam],0.8
6,CN[C@@H](C)[C@@H](O)c1ccccc1 [pseudoephedrine],0
7,demeclocycline,0.54
8,spironolactone,0.98
9,O=C1CN=C(c2ccccc2)c2cc([N+](=O)[O-])ccc2N1 [Nitrazepam],0.87
10,COc1cc(CCN)cc(OC)c1OC [mescaline],0.15
11,CCCC(C)C1(CC)C(=O)NC(=S)NC1=O (stereo not drawn) [Thiopental],0.84
12,Felodipine,1
13,CCN(C)C(=O)Oc1cccc([C@H](C)N(C)C)c1 [Rivastigmine],0.4
14,Oc1ccc2c(c1)[C@@]13CCCC[C@@]1(O)[C@@H](C2)N(CC1CCC1)CC3 [Butorphanol],0.81
